Laboratory results reported in ChEMBL document CHEMBL1201862, “PubChem BioAssay data set” (2004).
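Exposure lasted 48 hours, with cells grown in 96-well plates and compounds tested at five concentrations. Abbreviation: GI50, concentration required for 50% inhibition of growth.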 Active and inactive are the calls of the source. No stated cut-off is given here; in the data, active = GI50 up to about 1.1 µM and inactive = higher.

Tests used:
Assay in all cases: NCI tumour cell line growth inhibition, 48 h
786-0 = test system: 786-0
HCC 2998 = test system: HCC 2998
HOP-92 = test system: HOP-92
M14 = test system: M14
MOLT-4 = test system: MOLT-4
Malme-3M = test system: Malme-3M
NCI-H460 = test system: NCI-H460
OVCAR-5 = test system: OVCAR-5
SF-268 = test system: SF-268
SK-MEL-2 = test system: SK-MEL-2
SK-OV-3 = test system: SK-OV-3
SNB-19 = test system: SNB-19
U-251 = test system: U-251
UACC-62 = test system: UACC-62
HCT-15 = test system: HCT-15

Row | Compound | GI50 (786-0) | GI50 (HCC 2998) | GI50 (HOP-92) | GI50 (M14) | GI50 (MOLT-4) | GI50 (Malme-3M) | GI50 (NCI-H460) | GI50 (OVCAR-5) | GI50 (SF-268) | GI50 (SK-MEL-2) | GI50 (SK-OV-3) | GI50 (SNB-19) | GI50 (U-251) | GI50 (UACC-62) | GI50 (HCT-15) [µM]
1 | O=C1C2C=CC(C2)C(c2ccc(O)cc2)N1O (stereo not drawn) | > 100 µM (inactive) | > 100 µM (inactive) | > 100 µM (inactive) | > 100 µM (inactive) | > 100 µM (inactive) | > 100 µM (inactive) | > 100 µM (inactive) | > 100 µM (inactive) | > 100 µM (inactive) | > 100 µM (inactive) | > 100 µM (inactive) | > 100 µM (inactive) | > 100 µM (inactive) | > 100 µM (inactive) | –
2 | Cc1cnc2c(c1)C(=O)C1=C(OC(C)(C)CC1O)C2=O (stereo not drawn) | 14.9 µM (inactive) | 17.7 µM (inactive) | 16.7 µM (inactive) | 16.4 µM (inactive) | 15.9 µM (inactive) | 14.4 µM (inactive) | 11 µM (inactive) | > 100 µM (inactive) | 14.9 µM (inactive) | > 100 µM (inactive) | 18.9 µM (inactive) | 16.7 µM (inactive) | 15.2 µM (inactive) | 3.79 µM (inactive) | 16.7
3 | C=CCNC1=NC(=O)C(CC(=O)Nc2ccc([N+](=O)[O-])cc2[N+](=O)[O-])S1 (stereo not drawn) | > 100 µM (inactive) | > 100 µM (inactive) | 85.7 µM (inactive) | > 100 µM (inactive) | > 100 µM (inactive) | > 100 µM (inactive) | > 100 µM (inactive) | > 100 µM (inactive) | > 100 µM (inactive) | > 100 µM (inactive) | > 100 µM (inactive) | > 100 µM (inactive) | > 100 µM (inactive) | > 100 µM (inactive) | > 100
4 | CCN/C(=N\Nc1ccc([N+](=O)[O-])cc1)P(=O)(OC(C)C)OC(C)C | > 100 µM (inactive) | > 100 µM (inactive) | 66.5 µM (inactive) | > 100 µM (inactive) | > 100 µM (inactive) | 51.2 µM (inactive) | > 100 µM (inactive) | > 100 µM (inactive) | > 100 µM (inactive) | > 100 µM (inactive) | – | > 100 µM (inactive) | > 100 µM (inactive) | 64 µM (inactive) | > 100
5 | CSc1ccc(C2OC(=O)c3ccccc32)c2ccccc12 (stereo not drawn) | > 100 µM (inactive) | 70.8 µM (inactive) | 49 µM (inactive) | > 100 µM (inactive) | 32.3 µM (inactive) | > 100 µM (inactive) | > 100 µM (inactive) | > 100 µM (inactive) | > 100 µM (inactive) | > 100 µM (inactive) | > 100 µM (inactive) | > 100 µM (inactive) | 37.3 µM (inactive) | 54.3 µM (inactive) | 97.7
6 | COC(=O)C1Cc2c([nH]c3ccccc23)C(c2ccccc2O)N1 (stereo not drawn) | 69.8 µM (inactive) | 60.1 µM (inactive) | > 100 µM (inactive) | 93.8 µM (inactive) | 41.9 µM (inactive) | > 100 µM (inactive) | 18.5 µM (inactive) | > 100 µM (inactive) | – | > 100 µM (inactive) | > 100 µM (inactive) | > 100 µM (inactive) | > 100 µM (inactive) | 35.4 µM (inactive) | 30.5
7 | O=C(/C=C1\Nc2ccccc2C(=O)N1c1ccc(Cl)cc1)c1ccncc1 | 71.6 µM (inactive) | – | > 100 µM (inactive) | > 100 µM (inactive) | > 100 µM (inactive) | 60.1 µM (inactive) | > 100 µM (inactive) | > 100 µM (inactive) | > 100 µM (inactive) | > 100 µM (inactive) | > 100 µM (inactive) | > 100 µM (inactive) | > 100 µM (inactive) | > 100 µM (inactive) | > 100
8 | CC(C)(C)c1cc(C(=O)O)c2c(c1)C(=O)OC2(c1ccccc1)c1ccccc1C(=O)O (stereo not drawn) | > 100 µM (inactive) | 0.467 µM (active) | > 100 µM (inactive) | > 100 µM (inactive) | > 100 µM (inactive) | > 100 µM (inactive) | > 100 µM (inactive) | > 100 µM (inactive) | > 100 µM (inactive) | > 100 µM (inactive) | 0.0611 µM (active) | > 100 µM (inactive) | 0.0448 µM (active) | > 100 µM (inactive) | > 100
9 | Cn1cnc([N+](=O)[O-])c1Sc1nc2ccccc2s1 | 11.8 µM (inactive) | 10.2 µM (inactive) | 2.77 µM (inactive) | 15.2 µM (inactive) | 1.89 µM (inactive) | 1.84 µM (inactive) | 12 µM (inactive) | 14.6 µM (inactive) | 7.19 µM (inactive) | – | 15.5 µM (inactive) | 14.5 µM (inactive) | 11.7 µM (inactive) | 11.9 µM (inactive) | 2.99
10 | CC1=C(C(=O)Nc2ccccc2)C(c2cc(Cl)cc(Cl)c2)C(C(=O)Nc2ccccc2)=C(C)N1 | 9.04 µM (inactive) | 11.6 µM (inactive) | – | 12.4 µM (inactive) | 3.54 µM (inactive) | 14.4 µM (inactive) | 18.6 µM (inactive) | 19.4 µM (inactive) | 9.79 µM (inactive) | 12.1 µM (inactive) | 36.8 µM (inactive) | 14.2 µM (inactive) | 3.33 µM (inactive) | 3.94 µM (inactive) | 1.71
11 | CNC(=S)NNC(=O)c1c(C)nc2sccn12 | > 100 µM (inactive) | > 100 µM (inactive) | > 100 µM (inactive) | – | > 100 µM (inactive) | > 100 µM (inactive) | > 100 µM (inactive) | > 100 µM (inactive) | > 100 µM (inactive) | > 100 µM (inactive) | > 100 µM (inactive) | 99.5 µM (inactive) | > 100 µM (inactive) | > 100 µM (inactive) | > 100
12 | O=C(c1ccccc1)C1CCCCN1C(=O)c1ccccc1 (stereo not drawn) | > 100 µM (inactive) | > 100 µM (inactive) | – | > 100 µM (inactive) | > 100 µM (inactive) | > 100 µM (inactive) | > 100 µM (inactive) | – | > 100 µM (inactive) | > 100 µM (inactive) | > 100 µM (inactive) | > 100 µM (inactive) | > 100 µM (inactive) | 25.7 µM (inactive) | > 100
13 | COC(=O)[C@@]12C3=NO[C@]1(C(=O)OC)C(O[Si](C)(C)C(C)(C)C)[C@H]1OC(C)(C)O[C@H]1[C@@H]2C(OCc1ccccc1)CC3 (stereo partly drawn) | 70.5 µM (inactive) | 63.1 µM (inactive) | 2.75 µM (inactive) | 26.9 µM (inactive) | 9.66 µM (inactive) | – | 6.21 µM (inactive) | – | – | 28.8 µM (inactive) | 25.6 µM (inactive) | 25.8 µM (inactive) | 43.5 µM (inactive) | 41.7 µM (inactive) | > 100
14 | O=[N+]([O-])c1c(/C=N/Nc2ccccc2)oc(-c2ccc3c(c2)OCO3)c1-c1ccc2c(c1)OCO2 | 19.2 µM (inactive) | 5.71 µM (inactive) | 19.8 µM (inactive) | 3 µM (inactive) | – | 16.4 µM (inactive) | – | 5.79 µM (inactive) | 3.93 µM (inactive) | 2.49 µM (inactive) | 30.5 µM (inactive) | 70.3 µM (inactive) | – | 3.19 µM (inactive) | –
15 | CCC(=O)OC[n+]1ccc2c(C)c3[nH]c4ccccc4c3c(C)c2c1 | 0.767 µM (active) | – | 0.107 µM (active) | 1.08 µM (active) | 0.0358 µM (active) | 1.35 µM (inactive) | 0.033 µM (active) | 0.516 µM (active) | 0.552 µM (active) | 1.03 µM (active) | – | 1.6 µM (inactive) | 0.397 µM (active) | – | –
16 | COc1ccc(CNc2cnc3cc(N)ccc3n2)cc1 | > 100 µM (inactive) | > 100 µM (inactive) | – | > 100 µM (inactive) | 69 µM (inactive) | > 100 µM (inactive) | > 100 µM (inactive) | > 100 µM (inactive) | > 100 µM (inactive) | > 100 µM (inactive) | – | 69 µM (inactive) | > 100 µM (inactive) | > 100 µM (inactive) | > 100
17 | O=C(OCC1CO1)c1cccs1 (stereo not drawn) | > 100 µM (inactive) | > 100 µM (inactive) | 65.6 µM (inactive) | > 100 µM (inactive) | > 100 µM (inactive) | > 100 µM (inactive) | > 100 µM (inactive) | > 100 µM (inactive) | > 100 µM (inactive) | > 100 µM (inactive) | > 100 µM (inactive) | > 100 µM (inactive) | – | > 100 µM (inactive) | > 100
18 | O=C1c2ccccc2N2OC3C4CCC(C4)C3C12c1ccccc1 (stereo not drawn) | > 100 µM (inactive) | > 100 µM (inactive) | 40.8 µM (inactive) | 92.5 µM (inactive) | 32.1 µM (inactive) | > 100 µM (inactive) | – | – | > 100 µM (inactive) | – | > 100 µM (inactive) | > 100 µM (inactive) | 86.5 µM (inactive) | 93.8 µM (inactive) | 45.8
19 | CC[C@@]12N=C(N(C)C)C[C@]1(O)ON=C2C | > 100 µM (inactive) | > 100 µM (inactive) | > 100 µM (inactive) | > 100 µM (inactive) | > 100 µM (inactive) | > 100 µM (inactive) | > 100 µM (inactive) | – | > 100 µM (inactive) | > 100 µM (inactive) | > 100 µM (inactive) | > 100 µM (inactive) | > 100 µM (inactive) | – | > 100
20 | c1ccc(C2=NN3CN(N2)c2ccccc2OCCCOc2ccccc23)cc1 | > 100 µM (inactive) | – | – | > 100 µM (inactive) | 63.8 µM (inactive) | > 100 µM (inactive) | > 100 µM (inactive) | > 100 µM (inactive) | > 100 µM (inactive) | > 100 µM (inactive) | – | > 100 µM (inactive) | > 100 µM (inactive) | > 100 µM (inactive) | > 100
21 | O=C(/C=C/c1ccccc1Cl)c1ccccc1Cl | 15.2 µM (inactive) | 21.6 µM (inactive) | 17.1 µM (inactive) | 22.3 µM (inactive) | 23.8 µM (inactive) | 31.8 µM (inactive) | 19.2 µM (inactive) | 21.1 µM (inactive) | 23.4 µM (inactive) | – | 72.6 µM (inactive) | 15.7 µM (inactive) | 16.3 µM (inactive) | 16.7 µM (inactive) | 14.8
